{"source": "paper PMC7076013", "about": "(Scientific Reports, 2020)", "key": {"[1]": {"tested_on": "COX-2-negative (HCT-116) human colon cancer cell line", "settings": "cited from earlier work"}, "A375, human melanoma": {"tested_on": "A375, human melanoma", "assay": "MTT cell viability, A375", "assay_type": "cell-based", "settings": "48 h, MTT or CV", "experimental": "Both melanoma and colon cancer are tumor types tightly connected with inflammation, while the expression of COX-2 in the selected cell lines was highly variable. Since a lot of discrepancies were found in the literature concerning the expression of this enzyme[5],[48]–[53], both COX-1 and COX-2 expression was analyzed by Western blot. […] The cells were treated with a wide range of doses of 4a–c, 5, and 6 for 48 h and cell viability was determined by MTT (3-(4,5-dimethylthiazol-2-yl)-2,5-diphenyltetrazolium bromide) and CV (crystal violet) assays. The obtained IC50 values were similar for both assays (Table 1).\nReagents were obtained from Sigma (St. Louis, MO) unless indicated otherwise. Annexin V - FITC (AnnV) was acquired from Biotium (Hayward, CA) and Apostat from R&D (R&D S ystems, Minneapolis, MN USA). […] After being detached b y tr ypsinization, cells were seeded in defined number as follows: 2.5 × 10^3 cells/well in 96-well plates for viability assessment and 2 × 10^4 cells/well in 24-well plates for flow cytometry. […]\nCommittee at IBISS (02- 09/1 6). Cells were counted and seeded in 96-well plates and incubat ed overnight. Before treatment, non- adherent cells were removed. Compounds 4a- c, 5 and 6 were dissolved in DMSO and stored at −20 °C for a m onth. Working solutions were freshl y prepared in 10% FCS-RPMI-1640. Controls were treated with culture medium containing the equivalent […]\n3.2. Cell viability tests.\nThe number of viable cel ls in culture was estimated by the MTT (3-(4,5- dimethylthiazol- 2-yl ) - 2,5- diphenyltetrazolium bromide) and CV (crystal violet) tests. Cells were incubated in the presence of compounds 4a- c, 5 and 6 for 48 h, then the viability was measured as described.4 […]\nThe results were ex pressed as a p er centage of a v alue obtained for the untr eated control cells that was arbitrarily set to be 100%. A non- linear regression analysis of obtained results was done b y using Gr aphPad Prism software to calculat e IC50 values. […]"}, "[2]": {"tested_on": "COX-2-overexpressing (HCA-7) human colon cancer cell line", "settings": "cited from earlier work"}}, "data": [{"smiles": "CS(=O)(=O)c1ccc(C2=C(c3ccccc3)C(=O)OC2)cc1", "note": "[Rofecoxib]", "values": [{"measurement": "activity against HCT-116", "setting": "[1]", "result": "inactive"}, {"measurement": "viability of A375 cells", "setting": "A375, human melanoma", "result": "did not result in significantly decreased viability"}, {"measurement": "activity against HCA-7", "setting": "[2]", "result": "inactive"}]}]}
